Results taken from patent US20190209567A1, “A Specific Trifluoroethyl Quinoline Analogue For Use In The Treatment of APDS” (UCB Biopharma SPRL, priority 2016, published 2019).
Like-named read-outs stand apart in the source and are kept apart here.

Key:
[1] = tested on: pAKT^S473 (PI3K signalling) in T cell lymphoblasts; assay: pAKT^S473 expression in T cell lymphoblast cultures by flow cytometry, with and without OKT3 activation; assay type: cell-based, human; conditions: for IC50: Homo sapiens, T-cell
Description: (§1) The activity of N—{(R)-1-[8-Chloro-2-(1-oxypyridin-3-yl)quinolin-3-yl]-2,2,2-trifluoroethyl}pyrido[3,2-d]pyrimidin-4-ylamine [hereinafter referred to as “Compound (A)”] on PI3K signalling was assessed by measuring levels of either phosphorylated serine 473 of AKT (pAKT^S473) or phosphorylated serine 235/236 of ribosomal protein S6 (pS6^S235/236) using flow cytometry. The results obtained are depicted in the accompanying drawings, in which:
Analysis of phosphorylated AKT at Ser 473 (pAKT^S473) levels in T cell lymphoblast cultures by flow cytometry was performed with peripheral blood lymphocytes from healthy donors, and from APDS1 and APDS2 patients, with and without T cell receptor activation.
Generation of T cell lymphoblasts was performed in accordance with the method described by M-C. Deau et al. in J. Clin. Invest., 2014, 124, 3923-3928. In brief, peripheral blood mononuclear cells were isolated by Ficoll-Paque density gradient centrifugation (Pharmacia Biotech; catalogue no. #171-44003) and washed twice with RPMI 1640 GlutaMax medium (Invitrogen). T cell lymphoblasts were obtained by stimulating 1×10^6 cells per mL in RPMI 1640 GlutaMax medium supplemented with 10% human AB serum, penicillin/streptomycin (Invitrogen), PMA (phorbol 12-myristate 13-acetate; 20 ng/mL; Sigma-Aldrich) and ionomycin (1 μmol/L). After 2 to 3 days of activation, viable cells were separated by Ficoll-Paque density-gradient centrifugation and washed twice with RPMI 1640 GlutaMax medium, then cultured in RPMI 1640 GlutaMax medium supplemented with 10% human AB serum and 100 U/mL pro-IL2.
Analysis of phosphorylated AKT at Ser 473 levels in T cell lymphoblast cultures was performed once sufficient cells were available for the analysis (e.g. 6-12 days after starting the culture with pro-IL2).
The activity of Compound (A) was assessed in (i) the absence or (ii) the presence of T cell activation by receptor cross-linking with OKT3:
(i) Incubation of APDS1 and APDS2 patient cells for 30 minutes with Compound (A) at different concentrations (0, 1, 3, 10, 30, 100 and 200 nM). A positive control for pAKT staining (simulated cells with OKT3) was included (8×10^6 cells/patient).
(ii) Incubation of APDS1 and APDS2 patient cells for 30 minutes with Compound (A) at different concentrations (0, 1, 3, 10, 30, 100 and 200 nM) stimulated with anti-CD3 (OKT3; T cell receptor activation).
Corresponding assays were performed with T cell lymphoblasts derived from healthy donors (CTRL).

[2] = tested on: pS6^S235/236 (PI3K signalling) in T cell subsets in whole blood; assay: Ex vivo pS6^S235/236 expression in T cell subsets in whole blood by flow cytometry; assay type: cell-based, human; conditions: for IC50: Homo sapiens, T-cell
Description: as §1
The levels of pS6^S235/236 in different T cell (CD3+CD4+; CD3+CD8+) subsets in total blood from healthy donors, and from APDS1 and APDS2 patients, were analyzed by flow cytometry. The blood was incubated ex vivo for 45 minutes at 37° C. with different doses of Compound (A) (0, 10, 30, 100, 300, 1000 and 2000 nM).
The phosphorylation of ribosomal protein S6 at Ser 235/236 (pS6^S235/236) in cells from healthy donors, and from APDS1 and APDS2 patients, was analyzed ex vivo in the presence and absence of Compound (A) (10-2000 nM) in different T cell (CD3+CD4+; CD3+CD8+) subsets. As noted above, total blood was incubated ex vivo for 45 minutes at 37° C.
Data were generated with blood from two (2) healthy donors, three (3) APDS1 patients and one (1) APDS2 patient.

[3] = APD001 Phase 1b open-label 12-week clinical study in APDS1 and APDS2 patients; assay type: in vivo, human; conditions: 12 weeks of treatment
From the text: APD001 is an ongoing Phase 1b, multicentre, open-label, 12-week study to assess the efficacy, safety and tolerability of Compound (A) in male and female adolescents (aged from 12 to 18 years) and adults with APDS1 and APDS2.

IC50 ([1]; APDS1 and APDS2 patient-derived T cell lymphoblasts, absence of T cell activation by OKT3, read-out: IC50 range, pAKT expression): 3 to 20 nM
IC50 ([1]; APDS1 and APDS2 patient-derived T cell lymphoblasts, presence of T cell activation by OKT3, read-out: IC50 range, pAKT expression): 7 to 50 nM
IC50 ([1]; T lymphoblasts from 3 APDS1 patients, OKT3 +, read-out: Geomean IC50, inhibition of pAKT^S473 expression): 21 nM
IC50 ([1]; T lymphoblasts from 3 APDS1 patients, OKT3 +, read-out: Range of IC50, inhibition of pAKT^S473 expression): 7 to 50 nM
IC50 ([1]; T lymphoblasts from 3 APDS1 patients, OKT3 −, read-out: Geomean IC50, inhibition of pAKT^S473 expression): 8 nM
IC50 ([1]; T lymphoblasts from 3 APDS1 patients, OKT3 −, read-out: Range of IC50, inhibition of pAKT^S473 expression): 3 to 12 nM
IC50 ([1]; T lymphoblasts from 3 APDS2 patients, OKT3 +, read-out: Geomean IC50, inhibition of pAKT^S473 expression): 28 nM
IC50 ([1]; T lymphoblasts from 3 APDS2 patients, OKT3 +, read-out: Range of IC50, inhibition of pAKT^S473 expression): 21 to 33 nM
IC50 ([1]; T lymphoblasts from 3 APDS2 patients, OKT3 −, read-out: Geomean IC50, inhibition of pAKT^S473 expression): 13 nM
IC50 ([1]; T lymphoblasts from 3 APDS2 patients, OKT3 −, read-out: Range of IC50, inhibition of pAKT^S473 expression): 8 to 20 nM
IC50 ([2]; CD3+ and CD8+ cells, one APDS2 patient, based on concentration-response curves, read-out: IC50, inhibition of pS6^S235/236 expression): ≤ 100 nM
IC50 ([2]; CD3+ cells, 3 APDS1 patients, read-out: Geomean IC50 (adjusted for free concentration), pS6^S235/236 expression): 51 nM
IC50 ([2]; CD3+ cells, 3 APDS1 patients, read-out: Range of IC50 (adjusted for free concentration), pS6^S235/236 expression): 36 to 67 nM
IC50 ([2]; CD4+ cells, 3 APDS1 patients, read-out: Geomean IC50 (adjusted for free concentration), pS6^S235/236 expression): 41 nM
IC50 ([2]; CD4+ cells, 3 APDS1 patients, read-out: Range of IC50 (adjusted for free concentration), pS6^S235/236 expression): 29 to 56 nM
IC50 ([2]; CD8+ cells, 3 APDS1 patients, read-out: Geomean IC50 (adjusted for free concentration), pS6^S235/236 expression): 56 nM
IC50 ([2]; CD8+ cells, 3 APDS1 patients, read-out: Range of IC50 (adjusted for free concentration), pS6^S235/236 expression): 40 to 72 nM
SMILES: [O-][n+]1cccc(-c2nc3c(Cl)cccc3cc2[C@@H](Nc2ncnc3cccnc23)C(F)(F)F)c1 [Compound (A), N—{(R)-1-[8-Chloro-2-(1-oxypyridin-3-yl)quinolin-3-yl]-2,2,2-trifluoroethyl}pyrido[3,2-d]pyrimidin-4-ylamine]
IC50 ([1]; T lymphoblasts from 3 healthy donors, OKT3 +, read-out: Geomean IC50, inhibition of pAKT^S473 expression): 16 nM
IC50 ([1]; T lymphoblasts from 3 healthy donors, OKT3 +, read-out: Range of IC50, inhibition of pAKT^S473 expression): 9 to 50 nM
Inhibition of pAKT^S473 expression (in words) ([1]; basal and activated T lymphoblast cultures): potently inhibited
Inhibition of pS6^S235/236 expression (in words) ([2]; CD3+ and CD8+ cells, one APDS2 patient): showed potent inhibition
Inhibition of pS6^S235/236 signal (in words) ([2]; three T cell subsets, three APDS1 patients): showed inhibition
Tolerability ([3]; APDS patients): well tolerated
Clinical outcome ([3]; three APDS patients): some clinical and immunological improvements together with disease activity improvement
